Columns and labels:
Assay type in all cases: functional, organism-based
Leishmania donovani = assay: Antileishmanial activity against Leishmania donovani promastigotes after 72 hr by alamar blue assay
Plasmodium falciparum [1] = assay: Antimalarial activity against chloroquine-resistant Plasmodium falciparum W2 IndoChina after 48 hr by parasite LDH assay
Plasmodium falciparum [2] = assay: Antimalarial activity against chloroquine-sensitive Plasmodium falciparum D6 SierraLeone after 48 hr by parasite LDH assay

| Compound | EC50 (Leishmania donovani) [µM] | EC50 (Plasmodium falciparum [1]) [µM] | EC50 (Plasmodium falciparum [2]) [µM] |
| --- | --- | --- | --- |
| COc1ccc(N(Cc2ccccc2)Cc2ccc(OC)c(O)c2)cc1 | 109 |  |  |
| COc1ccc(CN(CCc2ccccc2)CCc2ccccc2)cc1O | 20.8 |  |  |
| COc1ccc(CN(CCCc2ccccc2)CCc2c[nH]c3ccccc23)cc1O | 9.89 |  |  |
| COc1ccc(CN(CCc2ccc(Br)cc2)Cc2cccc(Cl)c2)cc1O | 45.6 |  |  |
| COc1ccc(CN(CCc2ccccc2)Cc2ccc(Cl)cc2)cc1O | 68.1 |  |  |
| CCCCN(CCc1ccc(Br)cc1)Cc1ccc(OC)c(O)c1 | 125 | 7.14 |  |
| COc1ccc(CN(CCc2ccc(Br)cc2)Cc2ccc(Cl)cc2Cl)cc1O | 48.5 |  |  |
| COc1ccc(CN(Cc2ccc(Br)cc2)c2ccc(Br)cc2)cc1O | 33.5 |  |  |
| COc1ccc(CN(CCc2ccccc2)CCc2c[nH]c3ccccc23)cc1O | 16.2 |  |  |
| COc1ccc(CN(CCc2ccccc2)Cc2c(F)c(F)c(F)c(F)c2F)cc1O | 48 |  |  |
| COc1ccc(CN(CCc2ccc(Br)cc2)Cc2ccc(C(C)(C)C)cc2)cc1O | 47.8 |  |  |
| COc1ccc(CN(CCc2ccccc2)Cc2ccc(OC)c(O)c2)cc1 | 18.8 |  |  |
| COc1ccc(CN(CCCc2ccccc2)CCc2ccccc2)cc1O | 14.1 |  |  |
| COc1ccc(N(Cc2ccc(Br)cc2)Cc2ccc(OC)c(O)c2)cc1 | 25.8 | 11.2 | 11.2 |
| COc1ccc(CN(CCc2ccc(Br)cc2)Cc2c(F)c(F)c(F)c(F)c2F)cc1O | 50.4 |  |  |
| COc1ccc(CN(Cc2ccc(OC)c(O)c2)c2ccc(OC)cc2)cc1 | 71.2 |  |  |
| COc1ccc(CN(CCc2ccc(Br)cc2)Cc2ccc(F)cc2)cc1O | 56.3 |  |  |
| CCOC(=O)CCCN(CCc1ccccc1)Cc1ccc(OC)c(O)c1 | 25.6 |  |  |
| COc1ccc(CN(CCc2ccccc2)Cc2ccc(C)cc2)cc1O | 19.9 |  |  |
| COc1ccc(N(Cc2ccc(Cl)cc2)Cc2ccc(OC)c(O)c2)cc1 | 59.8 |  |  |
| CCOC(=O)CCN(CCc1ccc(Br)cc1)Cc1ccc(OC)c(O)c1 | 25.2 |  |  |
| COc1ccc(CN(CCc2ccc(Br)cc2)Cc2ccc(Br)cc2)cc1O | 11.9 | 9.42 | 6.93 |

| Compound | EC50 (Leishmania donovani) [µM] | EC50 (Plasmodium falciparum [1]) [µM] | EC50 (Plasmodium falciparum [2]) [µM] |
| --- | --- | --- | --- |
| COc1ccc(CN(CCc2ccc(Br)cc2)Cc2ccc(Cl)c(Cl)c2)cc1O | 48.5 |  |  |
| COc1ccc(CN(CCc2ccccc2)Cc2ccc(Cl)c(Cl)c2)cc1O | 50.4 |  |  |
| COc1ccc(CN(CCc2ccccc2)Cc2ccc(F)cc2)cc1O | 62.9 |  |  |
| COc1ccc(CN(CCc2ccc(OC)c(OC)c2)Cc2ccc(Br)cc2)cc1O | 39.1 | 9.79 |  |
| N=C(N)c1ccc(OCCCCCOc2ccc(C(=N)N)cc2)cc1 [PENTAMIDINE] | 1.35 |  |  |
| COc1ccc(CN(CCc2ccccc2)Cc2ccccc2)cc1O | 37.4 |  |  |
| CCOC(=O)CN(CCc1ccc(Br)cc1)Cc1ccc(OC)c(O)c1 | 26.1 |  |  |
| CCN(CC)CCCC(C)Nc1ccnc2cc(Cl)ccc12 (centres undefined) [CHLOROQUINE] |  | 0.31 |  |
| COc1ccc(CN(CCc2ccccc2)CC(=O)OC(C)(C)C)cc1O | 33.6 |  |  |
| COc1ccc(CN(CCc2ccccc2)CCc2ccc(Br)cc2)cc1O | 59 |  |  |
| COc1ccc(CN(CCc2ccc(Br)cc2)Cc2ccc(OC)c(O)c2)cc1 | 32.9 |  |  |
| COc1ccc(CN(Cc2ccccc2)c2cccc(Cl)c2)cc1O | 39.6 | 13.5 | 13.5 |
| COc1ccc(N(Cc2ccc(C(C)(C)C)cc2)Cc2ccc(OC)c(O)c2)cc1 | 61.6 |  |  |
| COc1ccc(CN(CCCc2ccccc2)c2cccnc2)cc1O | 15.8 |  |  |
| C[C@@H]1CC[C@H]2[C@@H](C)C(=O)O[C@@H]3O[C@@]4(C)CC[C@@H]1[C@]32OO4 [ARTEMISININ] |  | 0.02 | 0.02 |
| COc1ccc(CN(CCc2ccccc2)Cc2ccc(C(C)(C)C)cc2)cc1O | 18.6 |  |  |
| COc1ccc(CN(CCc2ccc(Br)cc2)Cc2ccc([N+](=O)[O-])cc2)cc1O | 46.7 |  | 9.55 |
| COc1ccc(CN(CCc2ccccc2)Cc2cccc(Cl)c2)cc1O | 70.7 |  |  |
| COc1ccc(CN(CCCN2CCOCC2)Cc2ccccc2)cc1O |  | 12.8 | 12.8 |
| COc1ccc(CN(CCc2c[nH]c3ccccc23)Cc2ccccc2)cc1O | 9.31 |  |  |
| COc1ccc(CN(CCc2ccc(Br)cc2)Cc2ccccc2)cc1O | 11.8 | 11.2 | 6.58 |
| COc1ccc(N(Cc2ccc(F)cc2)Cc2ccc(OC)c(O)c2)cc1 | 84.4 |  |  |

| Compound | EC50 (Leishmania donovani) [µM] | EC50 (Plasmodium falciparum [1]) [µM] | EC50 (Plasmodium falciparum [2]) [µM] |
| --- | --- | --- | --- |
| COc1ccc(CN(CCc2ccccc2)Cc2ccc(Cl)cc2Cl)cc1O | 60.1 |  |  |
| COc1ccc(CN(Cc2ccccc2)c2ccc(Br)cc2)cc1O | 70.3 |  |  |
| CCOC(=O)CCCN(CCc1ccc(Br)cc1)Cc1ccc(OC)c(O)c1 | 37.8 |  |  |
| COc1ccc(CN(Cc2ccccc2)Cc2ccc(Br)cc2)cc1O | 31.5 |  |  |
| COc1ccc(CN(CCc2ccc(Br)cc2)Cc2ccc(C)cc2)cc1O | 29.5 |  |  |
| COc1ccc(CN(Cc2ccc(Br)cc2)c2cccnc2)cc1O | 32.6 |  |  |
| C[C@@H]1[C@H](O)[C@@H](C)/C=C/C=C/C=C/C=C/C=C/C=C/C=C/[C@H](O[C@@H]2O[C@H](C)[C@@H](O)[C@H](N)[C@@H]2O)C[C@@H]2O[C@](O)(C[C@@H](O)C[C@@H](O)[C@H](O)CC[C@@H](O)C[C@@H](O)CC(=O)O[C@H]1C)C[C@H](O)[C@H]2C(=O)O [AMPHOTERICIN B] | 0.01 |  |  |
| COc1ccc(CN(CCc2ccc(Br)cc2)CC(=O)OC(C)(C)C)cc1O | 11.1 |  |  |
| COc1ccc(CN(Cc2ccccc2)c2cc(OC)c(OC)c(OC)c2)cc1O | 29.3 |  |  |
| COc1ccc(CN(Cc2ccc(Br)cc2)c2cccc(Cl)c2)cc1O | 64.7 |  |  |
| COc1ccc(CCN(Cc2ccccc2)Cc2ccc(OC)c(O)c2)cc1 | 50.3 | 12.6 | 12.6 |
| COc1ccc(CN(Cc2ccc(Br)cc2)c2cc(OC)c(OC)c(OC)c2)cc1O | 45.1 |  |  |
| COc1ccc(CN(CCc2ccc(OC)c(OC)c2)Cc2ccccc2)cc1O | 54 | 11.7 |  |
| COc1ccc(N(Cc2ccc(C)cc2)Cc2ccc(OC)c(O)c2)cc1 | 65.1 |  |  |
| COc1ccc(CN(CCc2ccc(Br)cc2)Cc2ccc(Cl)cc2)cc1O | 54.2 |  |  |
| COc1ccc(CN(CCCN2CCOCC2)Cc2ccc(Br)cc2)cc1O | 51.2 | 10.6 | 10.6 |
| COc1ccc(CN(Cc2ccccc2)c2cccnc2)cc1O | 53.1 |  |  |
| COc1ccc(CCN(Cc2ccc(Br)cc2)Cc2ccc(OC)c(O)c2)cc1 | 21.9 | 10.4 |  |
| COc1ccc(CN(CCCc2ccccc2)CCc2ccc(Br)cc2)cc1O | 28.6 |  |  |
| COc1ccc(CN(CCc2c[nH]c3ccccc23)Cc2ccc(Br)cc2)cc1O | 9.88 |  |  |
| COc1ccc(CN(CCc2ccccc2)c2cccnc2)cc1O | 18.5 |  |  |

Reference: ChEMBL document CHEMBL3046338, “Solid-Supported Parallel Synthesis of Hydroxybenzylamine Libraries Possessing Antileishmial Activity” (Med Chem Res, 2005)
